Marks after values point to notes of the source that are not given here.
Key:
[1] = system: supra-renal aortic wall in apoE-KO mice; experiment: Apoptosis in aortic tissue (TUNEL, cell death detection ELISA, H & E staining); type: in vivo; conditions: for apoptosis: TUNEL staining, supra-renal aorta, FIG. 2
Protocol: FIG. 3. To further quantify apoptosis in the aortic tissue, cell death detection ELISA assay was performed.

[2] = system: ApoE-KO mice infused with angiotensin II; experiment: Angiotensin II-induced abdominal aortic aneurysm in apoE-KO mice; type: in vivo
Text: Infusion of apoE-KO mice (Jackson Laboratories, Bar Harbor, Me.) with angiotensin II has been reported to lead to the formation of large abdominal aortic aneurysms (Daugherty et al. (2000) J. Clin. Invest. 105:1605-1612). This system can be used as a model system in which to study the effects of the Rho-kinase inhibitors of the present invention on these conditions, using the methods described in Wang et al. (2001) American J. Path. 159:1455-1464. (See Example 1).
(§1) For some parameters measured, comparative data was also collected for C57 Black mice, the mouse strain from which the ApoE-KO mouse is derived.

[3] = system: ApoE-KO mice infused with angiotensin II; experiment: Angiotensin II-induced cardiac hypertrophy in apoE-KO mice; type: in vivo
[4] = system: ApoE-KO mice infused with angiotensin II; experiment: Blood pressure, heart rate, serum cholesterol, aortic arch lesion area and aortic stiffness in Ang II-infused apoE-KO mice; type: in vivo
Text: as §1

Rho-kinase = conditions: cited from earlier work

Question: For `O=S(=O)(c1cccc2cnccc12)N1CCCNCC1` [Fasudil, Hexahydro-1-(5-isoquinolylsulfonyl)-1H-1,4-diazepine], which “aortic wall changes (adventitial fibrosis, inflammation, destruction of smooth muscle cells and elastin)” value ([1]; H & E staining, high dose fasudil, animals with aneurysm) is on record?
Answer: ameliorated, but not fully eliminated

Question: And the apoptosis [1]?
Answer: reducing apoptosis

Question: And the apoptosis ([1]; listed as fasudil)?
Answer: decreased apoptosis

Question: What about the “cytosolic DNA fragmentation increased by Ang II” value ([1]; cell death detection ELISA, aortic tissue, P<0.01, FIG. 3) of the same molecule?
Answer: abolished

Question: What about the “Diameter (mm)” value ([2]; Ang II for 30 days, fasudil in drinking water, postmortem direct measurement) of the same molecule?
Answer: 1.5 ± 0.1 mm

Question: What about the “Incidence (%)” value ([2]; abdominal aortic aneurysm, Ang II 1.44 mg/kg per day for 30 days, fasudil 1 mg/ml in drinking water) of the same molecule?
Answer: 41# %

Question: What about the “incidence of abdominal aortic aneurysm formation” value ([2]; oral, >100 mg/kg daily in drinking water, n=20, p<0.05 vs. controls) of the same molecule?
Answer: 35%

Question: What about the “decrease in the size of aneurysms” value ([2]; versus Ang II treated ApoE-KO mice, FIG. 1, fasudil 0.5 mg/ml and 1 mg/ml in drinking water) of the same molecule?
Answer: 29%

Question: What about the “Heart/body Wt” value ([3]; Ang II for 30 days, fasudil in drinking water) of the same molecule?
Answer: 6.1 ± 0.1

Question: And the “Myocyte (mm^2)” value ([3]; cardiomyocyte size, Ang II for 30 days, fasudil in drinking water)?
Answer: 262 ± 16# mm^2

Question: What about the “gene expression of ANP and collagen III” value ([3]; heart of apoE-KO mice) of the same molecule?
Answer: normalized

Question: What about the “angiotensin-II induced cardiac hypertrophy” value ([3]; measured by heart weight or cardiomyocyte size) of the same molecule?
Answer: significantly reduced

Question: What about the cardiac function ([3]; mouse, in vivo) of the same molecule?
Answer: improved

Question: What about the perivascular fibrosis ([3]; mouse, in vivo) of the same molecule?
Answer: reduced

Question: What about the “decrease in the degree of cardiac hypertrophy” value ([3]; versus Ang II treated ApoE-KO mice, FIG. 4, fasudil 0.5 mg/ml and 1 mg/ml) of the same molecule?
Answer: 14%

Question: And the “Lesion (%)” value ([4]; aortic arch atherosclerotic lesion area, Ang II for 30 days, fasudil in drinking water)?
Answer: 25 ± 3%

Question: What about the “effect on aortic arch atherosclerotic lesion area” value ([4]; mouse, in vivo) of the same molecule?
Answer: no effect

Question: What about the “effect on aortic stiffness” value ([4]; mouse, in vivo) of the same molecule?
Answer: no effect

Question: What about the “effect on serum cholesterol” value ([4]; mouse, in vivo) of the same molecule?
Answer: no effect

Question: And the “effect on heart rate” value ([4]; tail cuff instrumentation)?
Answer: no effect

Question: And the “effect on systolic blood pressure (SBP)” value ([4]; tail cuff instrumentation)?
Answer: no effect

Question: With `O=S(=O)(c1cccc2c(O)nccc12)N1CCCNCC1` [hydroxyfasudil] as the molecule, how does the “specificity of the inhibitory effect on Rho-kinase” value (Rho-kinase) read?
Answer: more specific inhibitory effect on Rho-kinase
